From patent US7767819B2, “Thiazolylimidazole derivatives and their use as inhibitors of microsomal triglyceride transfer protein” (Merck Patent GmbH, priority 2004, dated 2010)

Tests used:
[1] = biological target: T1, microsomal triglyceride transfer protein (MTP) (Mesocricetus auratus, UniProt P55158); experiment: Inhibition of MTP activity (transfer of [3H]-triolein from donor liposomes to biotinylated LDL, SPA); type: biochemical; conditions: MTP from golden hamster liver microsomes; incubation 18-24 hours at 37° C.; read-out: IC50 (concentration that allows a 50% inhibition of MTP)
T1 construct: The supernatant comprising the soluble MTP is dialysed against Tris/HCl 150 mM; from tissue; host or cells: golden hamster liver microsomes, deoxycholate-solubilised supernatant
T1 sequence (P55158 19-895): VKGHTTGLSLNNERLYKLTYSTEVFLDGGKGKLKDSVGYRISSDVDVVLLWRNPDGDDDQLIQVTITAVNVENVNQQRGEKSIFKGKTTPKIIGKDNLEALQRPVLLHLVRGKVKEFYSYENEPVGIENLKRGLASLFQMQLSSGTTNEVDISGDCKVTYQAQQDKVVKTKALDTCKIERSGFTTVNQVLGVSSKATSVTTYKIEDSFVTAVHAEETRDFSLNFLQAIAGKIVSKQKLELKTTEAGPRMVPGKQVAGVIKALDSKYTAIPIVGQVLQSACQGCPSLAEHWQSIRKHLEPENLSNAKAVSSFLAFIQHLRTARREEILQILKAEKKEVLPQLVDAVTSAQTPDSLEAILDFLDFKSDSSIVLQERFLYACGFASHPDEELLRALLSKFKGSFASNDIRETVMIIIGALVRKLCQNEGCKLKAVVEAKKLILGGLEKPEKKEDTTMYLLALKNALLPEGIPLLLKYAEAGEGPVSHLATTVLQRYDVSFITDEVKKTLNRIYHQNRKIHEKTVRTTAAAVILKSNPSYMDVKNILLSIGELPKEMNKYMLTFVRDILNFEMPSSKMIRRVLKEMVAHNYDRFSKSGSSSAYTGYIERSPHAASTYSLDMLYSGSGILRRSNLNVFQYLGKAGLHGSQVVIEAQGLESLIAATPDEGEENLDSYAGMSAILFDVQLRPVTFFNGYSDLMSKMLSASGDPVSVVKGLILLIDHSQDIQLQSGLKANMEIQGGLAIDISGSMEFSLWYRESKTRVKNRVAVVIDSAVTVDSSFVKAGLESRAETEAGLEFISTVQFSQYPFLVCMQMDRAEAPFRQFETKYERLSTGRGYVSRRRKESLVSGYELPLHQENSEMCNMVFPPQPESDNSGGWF
Description: Analysis of the Inhibition of MTP Activity
The inhibition of the activity of microsomal triglyceride transfer protein (MTP) was tested by using the following operating protocol.
The inhibition of MTP activity with a compound can be quantified by observing the inhibition of the transfer of a labelled triglyceride, from a donor particle to an acceptor particle, in the presence of MTP. The procedure for the preparation of MTP is based on the method by Wetterau and Zilversmit (Biochem. Biophys. Acta (1986) 875, 610). A few grams of golden hamster liver are taken and then rinsed several times in a 250 mM sucrose solution at 0° C. All the following steps proceed at +4° C. A homogenate at a concentration of 50% in 250 mM sucrose is prepared using a Teflon mill and then centrifuged for 10 minutes at 10 000×g at +4° C. The supernatant is then centrifuged at 105 000×g for 75 minutes at +4° C. The supernatant is discarded and the microsomal pellet is taken up in 3 ml (per g of starting liver) of Tris/HCl 150 mM pH 8.0. 1 ml aliquot fractions are stored at −80° C. until the time of use.
After thawing a fraction of microsomes (1 ml), 12 ml of refrigerated Tris/HCl 50 mM, KCl 50 mM, MgCl2 5 mM pH 7.4 buffers and 1.2 ml of deoxycholate (0.54% in water) are added. After incubation for 30 minutes at +4° C. with gentle agitation, the suspension is centrifuged at 105 000×g for 75 minutes. The supernatant comprising the soluble MTP is dialysed against Tris/HCl 150 mM, NaCl 40 mM, EDTA 1 mM, 0.02% sodium azide pH 7.4 buffer (5 times one litre over 2-3 days). The MTP is stored at +4° C., is stable for at least 30 days and is used in unmodified form in the test.
The donor particles (liposomes) are prepared from 208 μl of L-phosphatidylcholine at a concentration of 10 mg/ml in chloroform, and 480 μl of [3H]-triolein at a concentration of 0.5 mCi/ml in toluene. After stirring, the solution is evaporated under nitrogen, taken up in 6 ml of Tris/HCl 50 mM, KCl 50 mM, MgCl2 5 mM pH 7.4 buffer and incubated in an ultrasound bath for 30 minutes at room temperature. The liposomes are stored at +4° C. and sonicated again for 10 minutes before each use.
The acceptor particles are biotinylated low density lipoproteins (LDL-biot). These particles are supplied by the company Amersham.
The reaction mixture is prepared in untreated ½ well white plates (Corning Costar) by addition, in the following order, of: 5 μl of HEPES 50 mM, NaCl-150 mM, BSA 0.1% (w/v), 0.05% sodium azide (w/v), pH 7.4 buffer; 5 μl of liposomes; 5 μl of LDL-biot; 5 μl of test products in DMSO; 5 μl of MTP. After incubation for 18-24 hours at 37° C., the reaction is stopped by adding 100 μl of Amersham SPA (scintillation proximity assay) beads coupled to streptavidin, and the radioactivity is counted using a Top Count (Packard) machine at least one hour later. The inhibition of the transfer of the triglycerides with a compound is reflected by a reduction in the transferred radioactivity.
The results are expressed in terms of the IC50, i.e. the concentration that allows a 50% inhibition of MTP.

[2] = test system: apo B secretion in HepG2 cells; experiment: Secretion of apo B in the HepG2 human cell line (sandwich ELISA); type: cell-based; conditions: 24 hours incubation, culture supernatant, ELISA for human apo B, read-out: IC50 (concentration that produces a 50% inhibition of apo B secretion in the HepG2 cells)
Description: Analysis of the Secretion of Apo B in the HepG2 Human Cell Line:
The activity of a compound according to the invention can be evaluated by measuring the inhibition of apo B secretion in HepG2 cells.
The HepG2 cells (ECACC-No. 85011430) are used as model in the study of the in vitro hepatic secretion of lipoproteins (Dixon J. and Ginsberg H., J. Lipid. Res., 1993, 34, 167-179).
The HepG2 cells are cultured in Dulbecco's modified Eagle's medium comprising 10% foetal calf serum (DMEM and FBS-Gibco) in 96-well plates under an atmosphere of 5% carbon dioxide for 24 hours (about 70% confluence).
The test compounds are dissolved at a concentration of 2 or 10 mM in dimethyl sulfoxide (DMSO). Serial dilutions (1:3.16) are made in DMSO and are:added (1:200—Robot Multimek Beckman) to the growth medium (200 μl) and then finally incubated for 24 hours in the various wells containing the HepG2 cells.
The 24-hour culture supernatant diluted to 1:5 (phosphate-buffered saline: PBS comprising 1% bovine serum albumin) is tested according to a sandwich-ELISA method specific for human apo B.
The results are expressed in terms of IC50, i.e. the concentration that produces a 50% inhibition of apo B secretion in the HepG2 cells.

SMILES | IC50 [1] [µM] | IC50 [2] [µM]
CCn1c(-c2csc(C3CCN(C(=O)c4cccc(C)c4-c4ccc(OC(F)(F)F)cc4)CC3)n2)nc(-c2ccccc2)c1C [Example 1, {4-[4-(1-Ethyl-5-methyl-4-phenyl-1H-imidazol-2-yl)thiazol-2-yl]piperid-1-yl}(6-methyl-4′-trifluoromethoxybiphenyl-2-yl)methanone] | 0.32 | 0.369
Cc1c(-c2ccccc2)nc(-c2csc(C3CCN(C(=O)c4ccccc4-c4ccc(C(F)(F)F)cc4)CC3)n2)n1C [Example 2, {4-[4-(1,5-dimethyl-4-phenyl-1H-imidazol-2-yl)thiazol-2-yl]piperid-1-yl}(4′-trifluoromethylbiphenyl-2-yl)methanone] | 0.3 | 0.616
CCn1c(-c2csc(C3CCN(C(=O)c4ccccc4-c4ccc(C(F)(F)F)cc4)CC3)n2)nc(-c2ccccc2)c1C [Example 3, {4-[4-(1-ethyl-5-methyl-4-phenyl-1H-imidazol-2-yl)thiazol-2-yl]piperid-1-yl}(4′-trifluoromethylbiphenyl-2-yl)methanone] | 0.27 | 0.39
CCn1c(-c2csc(C3CCN(C(=O)c4ccccc4-c4ccc(C(F)(F)F)cc4)CC3)n2)nc(-c2cccnc2)c1C [Example 4, {4-[4-(1-ethyl-5-methyl-4-(pyrid-3-yl)-1H-imidazol-2-yl)thiazol-2-yl]-piperid-1-yl}(4′-trifluoromethylbiphenyl-2-yl)methanone] | 0.816 | 1.57
CCn1c(-c2csc(C3CCN(C(=O)c4ccccc4-c4ccc(C(F)(F)F)cc4)CC3)n2)nc(-c2ccccn2)c1C [Example 5, {4-[4-(1-ethyl-5-methyl-4-(pyrid-2-yl)-1H-imidazol-2-yl)thiazol-2-yl]-piperid-1-yl}(4′-trifluoromethylbiphenyl-2-yl)methanone] | 2.54 | 2.62
CCn1c(-c2csc(C3CCN(C(=O)c4cccc(C)c4-c4ccc(OC(F)(F)F)cc4)CC3)n2)nc(-c2ccccn2)c1C [Example 6, {4-[4-(1-ethyl-5-methyl-4-(pyrid-2-yl)-1H-imidazol-2-yl)thiazol-2-yl]-piperid-1-yl}(6-methyl-4′-trifluoromethoxybiphenyl-2-yl)methanone] | 1.83 | 2.3
CCn1c(-c2csc(C3CCCN(C(=O)c4ccccc4-c4ccc(C(F)(F)F)cc4)C3)n2)nc(-c2ccccc2)c1C (stereo not shown) [Example 7, {3-[4-(1-ethyl-5-methyl-4-phenyl-1H-imidazol-2-yl)thiazol-2-yl]piperid-1-yl}(4′-trifluoromethylbiphenyl-2-yl)methanone] |  | 2.09
